Test results published in ChEMBL document CHEMBL5344458, “AI in Pharma: Transforming Drug Discovery and Strategic Management with MYC-Modulating Compounds and BET Protein Inhibitors” (ACS Med Chem Lett, 2024).

Key:
[1] = Half life in Sprague-Dawley rat at 1 mg/kg,iv administration by LC-MS/MS analysis; assay type: ADME, organism-based; settings: in vivo
[2] = Oral bioavailability in Sprague-Dawley rat at 5 mg/kg administration by LC-MS/MS analysis; assay type: ADME, organism-based; settings: in vivo

| half-life [1] | bioavailability [2] | SMILES |
| --- | --- | --- |
| 18 min | 69% | CCNC(=O)c1cc(OC(C)c2ccc(Cl)cc2F)c(C(=O)NC)[nH]1 (stereo not drawn) |
| 84 min | 66% | CNC(=O)c1[nH]c(C(=O)N[C@H]2CC[C@H](O)CC2)cc1OC(C)c1ccc(Cl)cc1F (stereo partly drawn) |
| 24 min | 46% | CCNC(=O)c1cc(OC(C)c2ccccc2F)c(C(=O)NC)[nH]1 (stereo not drawn) |
| 24 min | 47% | CNC(=O)c1[nH]c(C(=O)NC2CCC2)cc1OC(C)c1ccc(Cl)cc1 (stereo not drawn) |
| 66 min | 30% | CCNC(=O)c1cc(OC(C)c2ccc(Cl)cc2)c(C(=O)NC)[nH]1 (stereo not drawn) |
| – | 65% | CNC(=O)c1[nH]c(C(=O)NC2CCC2)cc1OC(C)c1ccc(Cl)cc1F (single isomer, unassigned) |
| – | 70% | CNC(=O)c1[nH]c(C(=O)NC2CC2)cc1O[C@@H](C)c1ccccc1F |
| 36 min | 15% | CNC(=O)c1[nH]c(C(=O)NC2COC2)cc1OC(C)c1ccc(Cl)cc1 (stereo not drawn) |
| 30 min | 58% | CNC(=O)c1[nH]c(C(=O)NC2CCC2)cc1OC(C)c1ccccc1F (stereo not drawn) |
| 54 min | 66% | CNC(=O)c1[nH]c(C(=O)NC2CCC2)cc1OC(C)c1ccccc1 (stereo not drawn) |
